The results in this text go back to publication PMC12366525, “Characterization of allosteric modulators that disrupt androgen receptor co-activator protein-protein interactions to alter transactivation–Drug leads for metastatic castration resistant prostate cancer” (SLAS discovery : advancing life sciences R & D, 2023).

Structures are written as SMILES. Like-named read-outs stand apart in the source and are kept apart here.

What all share (type): cell-based
In one assay the test system is C4–2 cells. In words: Prostate cancer cell line growth inhibition assay, C4–2. To be noted: read-out: C4–2 GI50 (AR +). The protocol: (§1) The PC-3, DU-145, LNCaP, C4–2, and 22Rv1 PC cell line growth inhibition assays have been described previously. On day 1, each PC cell line was harvested, counted, and seeded into two 384-well assay plates, a time zero (T0) and a time 72 h (T72) plate. PC cell lines were all seeded at 1000 cells per well in 45 μL of tissue culture media in uncoated white clear bottom 384-well assay plates (VWR, # 82050–076) using a Matrix electronic multichannel pipette (Thermo Fisher Scientific, Waltham, MA) and cultured overnight at 37 °C, 5% CO2, and 95% humidity. On day 2, 25 μL of the Cell Titer Glo (CTG) (Promega Corporation, Madison, WI) detection reagent was dispensed into the wells of the T0 assay plate using a Matrix electronic multichannel pipette, and the RLUs were captured on the SpectraMax M5e (Molecular Devices LLC, Sunnyvale, CA) microtiter plate reader. Also on day 2, 5 μL of compounds were transferred into the test wells of the T72 384-well assay plates which were returned to the incubator for 72 h. Control wells received DMSO alone. On day 5, 25 μL of the CTG detection reagent was dispensed into the wells of the T72 assay plate using a Matrix electronic multichannel pipette, and the RLU’s were captured on the SpectraMax M5e microtiter plate reader platform.
(§2) In 384-well assays, DMSO minimum (n = 32) and maximum (n = 32) plate control wells were utilized to calculate signal-to-background ratios (S:B) and Z’-factor coefficient assay performance quality control statistics, and to normalize the signals of compound treated wells and to represent 0% and 100% respectively. For the 96-well AR-LBD H^3-DHT radioligand binding assay, eight minimum and maximum plate control wells were utilized to normalize the data. For the PC cell line growth inhibition assays we used the DMSO control data from the T0 and T72 assay plates to assess the dynamic range of the T0 to T72 cell growth, and to calculate S:B ratios and Z’-factor coefficient statistics for the assay signal window (T0 to T72). To normalize the 72 h compound exposure PC growth inhibition data, the signals from the compound treated wells were processed and expressed as% of the T72 DMSO plate controls. IC50 and GI50 values for each of the bioassays were calculated using Graph-Pad Prism 9 software to plot and fit data to curves using the Sigmoidal dose response variable slope equation Y = Bottom + [Top-Bottom]/ [1 + 10^^(LogEC50-X)*HillSlope].

The next assay has as its target T1, AR-LBD and SRC1 (Homo sapiens, UniProt P10275).
T1 construct: AR-LBD amino acids 658–919 expressed as a fusion protein with Gal4-DBD; expressed in transfected cells; host or cells: HEK 293
T1 sequence (P10275 658-919): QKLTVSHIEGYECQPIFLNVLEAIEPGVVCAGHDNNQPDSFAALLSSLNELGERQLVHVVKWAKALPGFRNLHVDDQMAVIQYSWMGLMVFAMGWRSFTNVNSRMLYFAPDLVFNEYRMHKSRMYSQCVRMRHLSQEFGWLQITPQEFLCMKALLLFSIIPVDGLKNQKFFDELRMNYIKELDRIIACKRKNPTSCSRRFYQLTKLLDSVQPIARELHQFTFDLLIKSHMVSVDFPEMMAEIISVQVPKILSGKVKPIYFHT
In words: SRC1 mammalian 2-hybrid (M2H) assay. To be noted: HEK 293 cells; 25 nM DHT; 27 h compound exposure; read-out: M2H AR-SRC1 CoA Recruitment IC50. The source says:
The 5xGAL4-TATA-luciferase reporter plasmid was a gift from Dr. Richard Maurer from the Oregon Health and Science University, and constructs pGAL4-hAR-658–919 (AR-LBD amino acids 658–919 expressed as a fusion protein with Gal4-DBD), pVP16-SRC1 (full--length SRC1 expressed as a fusion with VP16 activation domain) and pVP16-Empty vector were kindly provided to us by Dr. Elizabeth Wilson, from UNC Chapel Hill. pVP16-TIF2 was generated as described previously. HEK 293 cells were transiently co-transfected with 5 ng of pGal4-AR-LBD, 10 ng of either pVP16-TIF2 or pVP16-SRC1, and 20 ng of the 5xGal4-TATA-Luc reporter as described previously. HEK 293 cells were bulk co-transfected with the three plasmids that had been individually incubated with Fugene 6 at a 3:1 ratio for 25 min at room temperature (RT) in serum free media (SFM) and then combined with HEK 293 cells that were suspended in DMEM (Cellgro10013CV) with 2 mM L-glutamine (Invitrogen) that was supplemented with 10% fetal bovine serum, and 5000 cells in a volume of 40 μL were seeded into the wells of white opaque 384-well assay plates (Greiner Bio-one, #781080) and cultured overnight at 37 °C, 5% CO2, and 95% humidity. […] 25 μL of BrightGlo® reagent was added to the plate and the relative luminescence units (RLUs) were captured on a SpectraMax M5e microtiter plate reader (Molecular Devices, LLC, San Jose, CA).

Another assay relates to LNCaP cells. In words: Prostate cancer cell line growth inhibition assay, LNCaP. Conditions: 72 h, read-out: LNCap GI50 (AR+). On the procedure:
as §1, §2

For orientation: GI50 means the concentration giving 50% growth inhibition. A word on the IC50: it is the midpoint of a concentration-inhibition curve. On to `Cc1ccccc1-c1cc(O)c2c(c1)CN(c1nc(C(N)=O)cs1)CCO2` [S1–1], for which the GI50 with C4–2 cells (C4-2, 72 h) came to 31.7 µM; in the assay on LNCaP cells (Homo sapiens, LNCaP), 28.9 µM. Further, the IC50 on AR-LBD and SRC1 was 3.57 µM.

As to `Cc1ccccc1-c1cc(O)c2c(c1)CN(c1nccs1)CCO2` [S1–3], the GI50 was found to be 45.5 µM in the assay on C4–2 cells (72 h) and 43.4 µM in the assay with LNCaP cells. Also, the IC50 on AR-LBD and SRC1 is 5.19 µM.

For the molecule `Cc1nsc(NC(=O)N2CCC(Sc3ccccc3C)CC2)n1` [S2–6], the GI50 with C4–2 cells (C4-2, 72 h) turned out to be 14.1 µM; in the assay on LNCaP cells (Homo sapiens, LNCaP) it was 19.2 µM. Besides, the IC50 on AR-LBD and SRC1 was 0.46 µM.

As to `Cc1c(-c2ccccc2F)[nH]c2ccc(CNC(=O)CCc3cn[nH]c3)cc12` [S3–11], the GI50 was found to be 7.93 µM in the assay on C4–2 cells (C4-2, 72 h) and 7.41 µM in the assay on LNCaP cells (Homo sapiens, LNCaP). Further, the IC50 on AR-LBD and SRC1 is 4.79 µM.

With `Cc1c(-c2ccccc2F)[nH]c2ccc(CNC(=O)CCc3cnccn3)cc12` [S3–12], the GI50 turned out to be 1.92 µM with C4–2 cells (C4-2, 72 h) and 1.92 µM in the assay with LNCaP cells (Homo sapiens, LNCaP). In addition, at AR-LBD and SRC1, the IC50 was 3.93 µM.

As for `CC(=O)NCCC(=O)NCc1ccc2[nH]c(-c3ccccc3F)c(C)c2c1` [S3–13], the GI50 was 69.8 µM in the assay on C4–2 cells (C4-2, 72 h) and 67.2 µM in the assay with LNCaP cells (Homo sapiens, LNCaP). Moreover, the IC50 on AR-LBD and SRC1 stood at 11.7 µM.

As for `Cc1c(-c2ccccc2F)[nH]c2ccc(CNC(=O)c3ccc(CO)o3)cc12` [S3–14], the GI50 in the assay on C4–2 cells (C4-2, 72 h) stood at 33 µM; in the assay with LNCaP cells (Homo sapiens, LNCaP), 31.1 µM. For the same molecule, on AR-LBD and SRC1, the IC50 was determined as 2.5 µM.

Turning to `Cc1c(-c2ccc(F)cc2)[nH]c2ccc(CNC(=O)c3ccc(CO)o3)cc12` [S3–15], the GI50 in the assay on C4–2 cells (C4-2, 72 h) was 16.8 µM; in the assay on LNCaP cells (Homo sapiens, LNCaP), 14 µM. Moreover, on AR-LBD and SRC1, the IC50 was 2.99 µM.
